Experimental data reported in patent publication US11192889B2, “Tetrahydronaphthyridinepentanamide integrin antagonists” (The Rockefeller University, priority 2016, dated 2021).
Values joined by “and” are separate entries in the source; they are usually repeats but may differ in a detail not shown here. Equal values may be shown once.

What was measured:
HEK-293-αVβ3 cells [1] = target: T1, HEK-293-αVβ3 cells (Homo sapiens, UniProt P05106+P06756); assay: AP5 Binding Assay; type: cell-based; settings: for activation at 10 µM: relative to AP5 expression induced by cilengitide, read-out: AP5 expression induced at the highest concentration; for EC50: concentration inducing 50% of the AP5 expression induced by 1 μM cilengitide
T1 sequence (P05106 whole entry): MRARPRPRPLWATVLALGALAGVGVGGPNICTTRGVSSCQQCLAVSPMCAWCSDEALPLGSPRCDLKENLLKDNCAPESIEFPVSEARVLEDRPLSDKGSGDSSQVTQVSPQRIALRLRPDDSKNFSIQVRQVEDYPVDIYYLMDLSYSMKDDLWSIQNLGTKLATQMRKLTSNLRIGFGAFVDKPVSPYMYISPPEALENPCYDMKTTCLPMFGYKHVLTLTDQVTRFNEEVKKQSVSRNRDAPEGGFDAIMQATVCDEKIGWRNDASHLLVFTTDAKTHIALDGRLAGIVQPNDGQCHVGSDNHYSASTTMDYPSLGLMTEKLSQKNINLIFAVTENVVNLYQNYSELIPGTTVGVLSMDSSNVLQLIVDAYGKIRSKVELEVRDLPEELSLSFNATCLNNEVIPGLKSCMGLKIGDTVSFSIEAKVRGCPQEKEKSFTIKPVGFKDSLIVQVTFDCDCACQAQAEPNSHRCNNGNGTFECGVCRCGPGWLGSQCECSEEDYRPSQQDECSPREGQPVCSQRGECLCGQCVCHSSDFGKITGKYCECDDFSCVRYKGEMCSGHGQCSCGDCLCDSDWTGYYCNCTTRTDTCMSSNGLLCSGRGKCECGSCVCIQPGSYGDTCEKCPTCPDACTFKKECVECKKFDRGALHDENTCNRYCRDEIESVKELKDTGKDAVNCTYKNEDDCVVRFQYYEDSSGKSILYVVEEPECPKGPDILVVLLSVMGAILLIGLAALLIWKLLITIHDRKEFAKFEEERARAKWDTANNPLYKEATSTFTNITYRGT
T1 sequence (P06756 whole entry): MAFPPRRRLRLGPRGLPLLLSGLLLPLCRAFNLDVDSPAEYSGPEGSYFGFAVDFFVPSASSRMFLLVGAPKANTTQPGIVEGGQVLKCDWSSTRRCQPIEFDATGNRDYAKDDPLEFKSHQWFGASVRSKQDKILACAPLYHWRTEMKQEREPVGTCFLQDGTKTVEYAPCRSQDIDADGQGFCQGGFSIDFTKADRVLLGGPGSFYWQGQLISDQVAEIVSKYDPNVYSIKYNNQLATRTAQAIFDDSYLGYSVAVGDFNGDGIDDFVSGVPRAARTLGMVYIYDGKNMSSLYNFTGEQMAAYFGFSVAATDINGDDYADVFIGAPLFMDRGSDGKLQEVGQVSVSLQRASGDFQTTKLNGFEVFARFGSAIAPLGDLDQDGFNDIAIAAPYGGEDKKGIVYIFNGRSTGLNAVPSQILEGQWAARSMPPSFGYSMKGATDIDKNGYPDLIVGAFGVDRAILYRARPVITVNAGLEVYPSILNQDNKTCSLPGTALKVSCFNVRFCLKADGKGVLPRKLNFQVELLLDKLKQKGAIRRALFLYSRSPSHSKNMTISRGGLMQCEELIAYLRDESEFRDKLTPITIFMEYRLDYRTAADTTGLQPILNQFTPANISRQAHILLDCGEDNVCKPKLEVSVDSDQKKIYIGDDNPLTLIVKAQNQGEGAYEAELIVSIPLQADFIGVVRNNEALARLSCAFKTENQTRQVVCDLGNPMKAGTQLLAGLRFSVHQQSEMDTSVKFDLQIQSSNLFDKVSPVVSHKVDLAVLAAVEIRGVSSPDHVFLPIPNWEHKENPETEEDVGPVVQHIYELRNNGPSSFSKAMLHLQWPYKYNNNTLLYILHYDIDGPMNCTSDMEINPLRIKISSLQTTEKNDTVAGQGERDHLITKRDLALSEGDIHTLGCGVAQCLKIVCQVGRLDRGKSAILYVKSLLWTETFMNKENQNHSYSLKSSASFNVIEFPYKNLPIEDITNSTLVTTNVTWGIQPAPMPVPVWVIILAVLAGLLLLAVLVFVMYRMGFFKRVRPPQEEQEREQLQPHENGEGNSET
Source text: (§1) HEK-293 Cells Expressing αVβ3. HEK-293 cells were transfected using lipofectamine 2000 (Invitrogen #11668030) with the cDNA for αV using the pEF1/V5-His A vector and the cDNA for β3 using the vector pcDNA3.1. Cells expressing αVβ3 were identified by their reaction with murine monoclonal antibodies (mAbs) LM609 and 7E3, and stable cell lines were established by repetitive sorting using LM609. […] HEK-293-αVβ3 cells for assays are counted in an automated cell counter (ADVIA 120) and adjusted to values appropriate for each assay.
AP5 Binding Assay. HEK-293-αVβ3 cells are harvested using 0.05% trypsin 0.5 mM EDTA, washed with HBMT once, and resuspended in HBMT containing 1 mM Mg2+ and 2 mM Ca2+. The cells are counted and adjusted to 0.5×10^6 cells per sample. The compound to be tested and fluorescently labeled mAb AP5 (either Alexa 488 or Alexa 674; 10 μg/mL) are added and incubated for 30 minutes at 37° C. The cells are then washed and analyzed by flow cytometry (BD FACSCalibur) at the appropriate wavelength for detecting the AP5 fluorophore. In each assay, cilengitide (1 μM) and 10 mM EDTA are included as positive controls and untreated cells are used as the negative control. The concentration of the test compound required to induce the expression of 50% of the AP5 expression induced by cilengitide is calculated and defined as the EC50. The EC50 for cilengitide was determined based on the expression induced by EDTA.

HEK-293-αVβ3 cells [2] = target: T1, HEK-293-αVβ3 cells; assay: αVβ3 Cell Adhesion to Fibrinogen Assay; type: cell-based; set-up: IC50; other: dose reducing by 50% the adhesion of HEK-293-αVβ3 cells to fibrinogen; untreated cells 100% adhesion, 10 mM EDTA 0%; settings: dose reducing by 50% the adhesion of HEK-293-αVβ3 cells to fibrinogen; separate determinations listed
Source text: as §1
αVβ3 Cell Adhesion to Fibrinogen Assay. Polystyrene 96-well microtiter plates (Costar, 3590) are precoated with 3.5 μg/mL of purified fibrinogen (Enzyme Research Laboratories) in 0.15 M NaCl, 0.01 M Tris/HCL, pH 7.4 for 1 hour at 37° C. The wells are then washed and incubated with HEPES-Buffered Modified Tyrode's solution (HBMT; 0.128 M NaCl, 10 mM HEPES, 12 mM NaHCO3, 0.4 mM NaH2PO4, 2.7 mM KCl, 0.35% bovine serum albumin (Fisher), 0.1% glucose, pH 7.4) for 1 hour at room temperature or overnight at 4° C. Wells are washed with HBMT containing 1 mM Mg2+ and 2 mM Ca2+ and then 50 μL of HEK-293-αVβ3 cells that have been pretreated with the compound to be tested for 20 minutes at room temperature are added to each well at a concentration of 3,000 cells/μL. After 30-32 minutes the wells are washed with HBMT containing Ca2+ and Mg2+ three times and then the adherent cells are lysed and the acid phosphatase activity that is released is measured by: 1. adding phosphatase substrate (Sigma EC 224-246-5) at 2 mg/mL in 0.1 M Na citrate, pH 5.6, 0.1% triton X-100 for 1 hour at room temperature; 2. stopping the reaction by adding 50 μL of 2 M NaOH; and 3. analyzing the samples in a spectrophotometer at 405 nm. In each assay, 10 mM EDTA is used as a positive control and untreated cells are used as a negative control. The IC50 is the dose of test compound that reduces by 50% the adhesion of the HEK-293-αVβ3 cells, taking the results with untreated cells as 100% and the results in the presence of EDTA as 0%. In some instances more than one IC50 determination was made, in which case, results of separate determinations are reported. IC50's were not determined for all compounds in the table; for some of these test compounds the inhibition at specific doses are reported. In some instances, the test compound produced a greater reduction than 10 mM EDTA, and these are shown as negative numbers.

Row | Compound | activation at 10 µM (HEK-293-αVβ3 cells [1]) [%] | EC50 (HEK-293-αVβ3 cells [1]) [nM] | IC50 (HEK-293-αVβ3 cells [2])
1 | CC(C)COC(=O)NC(CCNC(=O)CCCCc1ccc2c(n1)NCCC2)C(=O)O (stereo not drawn) [Example 38, 2-(Isobutoxycarbonylamino)-4-[5-(5,6,7,8-tetrahydro-1,8-naphthyridin-2-yl)pentanoylamino]butanoic acid] | 20 | > 10000 | 343 nM and 416 nM
2 | O=C(O)CCCNC(=O)CCCCc1ccc2c(n1)NCCC2 [Example 1, 4-[5-(5,6,7,8-tetrahydro-1,8-naphthyridin-2-yl)pentanoylamino]butanoic acid] | – | > 100000 | 1350 nM
3 | O=C(CCCCc1ccc2c(n1)NCCC2)NCCC(NC(=O)CO)C(=O)O (stereo not drawn) [Example 34] | 32 | > 10000 | < 100 nM
4 | O=C(CCCCc1ccc2c(n1)NCCC2)NCCC(NC(=O)c1nc2ccccc2n1CC1CC1)C(=O)O (stereo not drawn) [Example 73, 2-[[1-(cyclopropylmethyl)benzimidazole-2-carbonyl]amino]-4-[5-(5,6,7,8-tetrahydro-1,8-naphthyridin-2-yl)pentanoylamino]butanoic acid] | 2.5 | > 10000 | 502 nM and 142 nM
5 | COC(=O)C(CCNC(=O)CCCCc1ccc2c(n1)NCCC2)NC(=O)OCc1ccccc1 (stereo not drawn) [Example 5, Methyl 2-(benzyloxycarbonylamino)-4-[5-(5,6,7,8-tetrahydro-1,8-naphthyridin-2-yl)pentanoylamino]butanoate] | 23 | > 10000 | 2450 nM
6 | O=C(CCCCc1ccc2c(n1)NCCC2)NCCC(C(=O)O)n1cnc(-c2ccccc2)n1 (stereo not drawn) [Example 78, 2-(3-phenyl-1,2,4-triazol-1-yl)-4-[5-(5,6,7,8-tetrahydro-1,8-naphthyridin-2-yl)pentanoylamino]butanoic acid] | 10 | > 10000 | 518 nM
7 | O=C(CCCCc1ccc2c(n1)NCCC2)NCC[C@@H](NC(=O)c1nc2ccccc2s1)C(=O)O [Example 86, (R)-2-(benzo[d]thiazole-2-carboxamido)-4-(5-(5,6,7,8-tetrahydro-1,8-naphthyridin-2-yl)pentanamido)butanoic acid] | 7 | > 10000 | 129 nM and 169 nM
8 | O=C(CCCCc1ccc2c(n1)NCCC2)NCCC(NC(=O)OCc1cccc(F)c1)C(=O)O (stereo not drawn) [Example 66] | 12 | > 10000 | 533 nM
9 | O=C(CCCCc1ccc2c(n1)NCCC2)NCCC(C(=O)O)c1ccccc1 (stereo not drawn) [Example 9, 2-Phenyl-4-[5-(5,6,7,8-tetrahydro-1,8-naphthyridin-2-yl)pentanoylamino]butanoic acid] | 11 | > 10000 | 3720 nM and 1770 nM
10 | COc1cccc(C(=O)NC(CCNC(=O)CCCCc2ccc3c(n2)NCCC3)C(=O)O)n1 (stereo not drawn) [Example 71, 2-[(6-methoxypyridine-2-carbonyl)amino]-4-[5-(5,6,7,8-tetrahydro-1,8-naphthyridin-2-yl)pentanoylamino]butanoic acid] | 9 | > 10000 | 1140 nM

Further lines, results first:

Row | activation at 10 µM (HEK-293-αVβ3 cells [1]) [%] | EC50 (HEK-293-αVβ3 cells [1]) [nM] | IC50 (HEK-293-αVβ3 cells [2]) | Compound
11 | 19 | > 10000 | 286 nM and 1680 nM | COC(=O)[C@H](CCNC(=O)CCCCc1ccc2c(n1)NCCC2)NC(=O)OCc1ccccc1 [Example 2, Methyl (2S)-2-(benzyloxycarbonylamino)-4-[5-(5,6,7,8-tetrahydro-1,8-naphthyridin-2-yl)pentanoylamino]butanoate]
12 | 16 | > 10000 | 491 nM | COc1ccccc1COC(=O)NC(CCNC(=O)CCCCc1ccc2c(n1)NCCC2)C(=O)O (stereo not drawn) [Example 63]
13 | 7 | > 10000 | 6300 nM | Cc1ccc(S(=O)(=O)NC(CCNC(=O)CCCCc2ccc3c(n2)NCCC3)C(=O)O)cc1 (stereo not drawn) [Example 14, 2-(p-Tolylsulfonylamino)-4-[5-(5,6,7,8-tetrahydro-1,8-naphthyridin-2-yl)pentanoylamino]butanoic acid]
14 | 14 | > 10000 | 586 nM | O=C(CCCCc1ccc2c(n1)NCCC2)NCCC(NC(=O)OCCc1ccccc1)C(=O)O (stereo not drawn) [Example 61]
15 | 10 | > 10000 | 579 nM | COc1ccc(COC(=O)NC(CCNC(=O)CCCCc2ccc3c(n2)NCCC3)C(=O)O)cc1 (stereo not drawn) [Example 60]
16 | 8 | > 10000 | 2020 nM | CC(C)Cc1cn(C(CCNC(=O)CCCCc2ccc3c(n2)NCCC3)C(=O)O)nn1 (stereo not drawn) [Example 77, 2-(4-isobutyltriazol-1-yl)-4-[5-(5,6,7,8-tetrahydro-1,8-naphthyridin-2-yl)pentanoylamino]butanoic acid]
17 | 7 | > 10000 | 211 nM | O=C(CCCCc1ccc2c(n1)NCCC2)NCCC(Nc1nc2ccccc2o1)C(=O)O (stereo not drawn) [Example 69, 2-(1,3-benzoxazol-2-ylamino)-4-[5-(5,6,7,8-tetrahydro-1,8-naphthyridin-2-yl)pentanoylamino]butanoic acid]
18 | – | > 10000 | 534 nM | O=C(CCCCc1ccc2c(n1)NCCC2)NCC[C@@H](Nc1ncc(-c2ccccc2)cn1)C(=O)O [Example 91, (R)-2-((5-phenylpyrimidin-2-yl)amino)-4-(5-(5,6,7,8-tetrahydro-1,8-naphthyridin-2-yl)pentanamido)butanoic acid]
19 | 13 | > 10000 | 120 nM | O=C(CCCCc1ccc2c(n1)NCCC2)NCCC(NC(=O)OCc1ccccc1F)C(=O)O (stereo not drawn) [Example 65]
20 | 6 | > 10000 | 181 nM and 90.4 nM and 185 nM | O=C(CCCCc1ccc2c(n1)NCCC2)NCCC(NC(=O)c1ncc(-c2ccccc2)s1)C(=O)O (stereo not drawn) [Example 72, 2-[(5-phenylthiazole-2-carbonyl)amino]-4-[5-(5,6,7,8-tetrahydro-1,8-naphthyridin-2-yl)pentanoylamino]butanoic acid]
21 | – | > 10000 | 201 nM | O=C(CCCCc1ccc2c(n1)NCCC2)NCC[C@H](Nc1ncc(-c2ccccc2)cn1)C(=O)O [Example 92, (2S)-2-[(5-phenylpyrimidin-2-yl)amino]-4-[5-(5,6,7,8-tetrahydro-1,8-naphthyridin-2-yl)pentanoylamino]butanoic acid]
22 | 13 | > 10000 | 320 nM | O=C(CCCCc1ccc2c(n1)NCCC2)NCCC(NC(=O)OCc1ccc(F)cc1)C(=O)O (stereo not drawn) [Example 67]
23 | 14 | > 10000 | 187 nM | O=C(CCCCc1ccc2c(n1)NCCC2)NCC[C@H](Nc1nc2ccccc2o1)C(=O)O [Example 87, (2S)-2-(1,3-benzoxazol-2-ylamino)-4-[5-(5,6,7,8-tetrahydro-1,8-naphthyridin-2-yl)pentanoylamino]butanoic acid]
24 | 5 | > 10000 | 128 nM | O=C(CCCCc1nc2c(cc1C1CC1)CCCN2)NCCC(Nc1nc2ccccc2o1)C(=O)O (stereo not drawn) [Example 83, 2-(1,3-benzoxazol-2-ylamino)-4-[5-(3-cyclopropyl-5,6,7,8-tetrahydro-1,8-naphthyridin-2-yl)pentanoylamino]butanoic acid]
25 | 9 | > 10000 | 939 nM | O=C(CCCCc1ccc2c(n1)NCCC2)NCCC(C(=O)O)n1cc(-c2ccccc2)nn1 (stereo not drawn) [Example 76, 2-(4-phenyltriazol-1-yl)-4-[5-(5,6,7,8-tetrahydro-1,8-naphthyridin-2-yl)pentanoylamino]butanoic acid]
